Data from Sander's compilation of Henry's law constants (doi:10.1016/j.hazl.2022.100070).

experiment: Henry solubility constant Hcp at 298.15 K (mol/(m3 Pa)); conditions: reference: Abusallout et al. (2022)

SMILES | Henry solubility constant Hcp
C=CC(=O)OCCC(F)(F)C(F)(F)C(F)(F)C(F)(F)C(F)(F)C(F)(F)C(F)(F)C(F)(F)F | 0.0013
FC(F)(F)C(F)(F)C(F)(F)C(F)(F)C(F)(F)C(F)(F)CCI [1,1,1,2,2,3,3,4,4,5,5,6,6-tridecafluoro-8-iodooctane] | 0.0013
OCCC(F)(F)C(F)(F)C(F)(F)C(F)(F)C(F)(F)C(F)(F)C(F)(F)C(F)(F)C(F)(F)C(F)(F)F [1,1,2,2-tetrahydroperfluoro dodecanol] | 0.00014
OCCC(F)(F)C(F)(F)C(F)(F)C(F)(F)C(F)(F)C(F)(F)F [1H,1H,2H,2H-perfluoro-1-octanol] | 0.00033
OCCC(F)(F)C(F)(F)C(F)(F)C(F)(F)C(F)(F)C(F)(F)C(F)(F)C(F)(F)F [1H,1H,2H,2H-perfluorodecan-1-ol] | 0.0002
O=S(=O)(O)CCC(F)(F)C(F)(F)C(F)(F)C(F)(F)C(F)(F)C(F)(F)C(F)(F)C(F)(F)F [1H,1H,2H,2H-perfluorodecane sulfonic acid] | 0.0022
OCCC(F)(F)C(F)(F)C(F)(F)C(F)(F)F [1H,1H,2H,2H-perfluorohexan-1-ol] | 0.0013
O=S(=O)(O)CCC(F)(F)C(F)(F)C(F)(F)C(F)(F)F [1H,1H,2H,2H-perfluorohexane sulfonic acid] | 0.0045
O=S(=O)(O)CCC(F)(F)C(F)(F)C(F)(F)C(F)(F)C(F)(F)C(F)(F)F [1H,1H,2H,2H-perfluorooctane sulfonic acid] | 0.0021
FC(F)(F)C(F)(F)C(F)(F)C(F)(F)C(F)(F)C(F)(F)/C=C/I [1H,2H-perfluoro-1-iodooct-1-ene] | 0.00084
O=C(O)CC(F)(F)C(F)(F)C(F)(F)C(F)(F)C(F)(F)C(F)(F)C(F)(F)C(F)(F)F [2H,2H-perfluorodecanoic acid] | 0.00058
C=CC(F)(F)C(F)(F)C(F)(F)C(F)(F)C(F)(F)C(F)(F)F [(perfluorohexyl)ethene] | 0.00011
CCNS(=O)(=O)C(F)(F)C(F)(F)C(F)(F)C(F)(F)C(F)(F)C(F)(F)C(F)(F)C(F)(F)F [N-ethylperfluorooctanesulfonamide] | 0.00094
CNS(=O)(=O)C(F)(F)C(F)(F)C(F)(F)C(F)(F)C(F)(F)C(F)(F)C(F)(F)C(F)(F)F [N-methylperfluorooctanesulphonamide] | 0.00044
FC(F)(F)C(F)(F)C(F)(F)C(F)(F)C(F)(F)C(F)(F)I [perfluorohexyl iodide] | 0.00046
